Data on three compounds can be found in US9943524B2, “Use of alkaloid in preparing pharmaceutical compositions for preventing or treating pulmonary fibrosis” (China Pharmaceutical University, priority 2014, dated 2018).

Each structure is given as a SMILES string.

Assay [1] relates to pulmonary fibrosis mice induced by bleomycin. Put plainly: Activity of 8 alkaloids and pentoxyverine against pulmonary fibrosis in mice (Embodiment 3). The assay is classed as in vivo, C57BL/6 mice. As to conditions: intragastric from first day after model to 21th day; alkaloids and pentoxyverine 30 mg/kg (FIG. 1B, 1C). How it is done:
(§1) Female C57BL/6 mice (eight-week-old) are established for models after 7 days, the time is set for the mice to adapt to the environment. After fasts for overnight, the mice are anaesthetized by 3% chloral hydrate and fixed. Sterilize and incise neck skin longitudinally as little injury as possible. Split fascia and muscle with tweezers longitudinally and expose the windpipe. Then, about 35 μl (3.5 mg/kg) bleomycin are injected into windpipe with microinjector. Put the mice upright rapidly and rotate the mice for 3˜5 minutes, so that bleomycin is able to enter into the pulmones uniformly. Observe the breathing of mice. Sterilize neck injury with 75% alcohol tampon and stitch the wound, then 1 drop or 2 drops of benzylpenicillin injection is/are dripped into the suture. Put the mice back into dry and clean cages, and feed them normally after waking up. Operations are done on operating table at about […]. Physiological saline using in injection is injected into windpipe of sham operation group.
Experimental mice are randomly divided into 12 groups: 10 mice in model group, 10 mice in pentoxyverine group, and 5 mice in any other group. Group 1 is sham operation group, group 2 is model group, group 3 is pentoxyverine group, group 4 is positive drug pirfenidone group, groups 5-12 are compounds I-VIII administration group respectively. Models of groups 2-12 are established by using bleomycin with the same method used in embodiment 2. From the first day after successfully establishing model, 30 mg/kg pentoxyverine and 300 mg/kg pirfenidone are given to group 3 and group 4 by means of intragastric administration respectively. 30 mg/kg compounds I-VIII are given to groups 5-12 also by means of intragastric administration respectively. Besides, same doses of solvent are given to sham operation group and model group until the 21th day. After the last intragastric administration, the mice are killed to collect the lung tissue, and the right lobule is used for determining the content of hydroxyproline, while the left lobule is used for preparing pathological sections.

For assay [2] the test system is unchanged. Put plainly: Determination of mice mortality (Embodiment 4). As to conditions: for protective effect on model mice (mortality), comparison among compounds: lower dose (30 mg/kg) better. The assay is classed as in vivo, C57BL/6 mice. How it is done: as §1
(§2) Model animals are divided into prevention groups and treatment groups, then drugs are given to the two groups respectively. According to internationally methods of drug administration, drugs are given continuously to the prevention groups by means of intragastric administration from the second day after successfully establishing model to the 14th day, and drugs are given continuously to treatment groups by means of intragastric administration from the 8th day after successfully establishing model to the 21th day. Groups and dosage regimen are shown in tab.1.
From the 0th day (the day when the model is established) to 14th day, drugs are given continuously to prevention groups. From the 8th day after successfully establishing model to 21th day, drugs are given continuously to treatment groups. Statistical analysis of death of animals in each group is carried on every day and the survival rate of animals in each group is calculated. Results are shown in tab.2.

Assay [3] shares this test system. Put plainly: Detection of the mice lung index (Embodiment 4). The assay is classed as in vivo, C57BL/6 mice. As to conditions: 30 and 60 mg/kg, prevention groups and treatment groups, versus model group (FIG. 2); lower dose better in prevention groups. How it is done: as §1, §2
After the last intragastric administration, the mice are killed to strip and weigh the lung, and the lung index is the lung weight divided by mouse weight (FIG. 2). […] In general, the 3 compounds have better effect in decreasing the mortality of mice than the positive drug pirfenidone.

Assay [4] shares this test system. Put plainly: HE stained pathological evaluation and inflammation scores (Embodiment 4). The assay is classed as in vivo, C57BL/6 mice. Particulars: for lung tissue inflammation scores (HE stained, grade 0-3): 30, 60 mg/kg, prevention and treatment groups (FIG. 4), lower dose better; for pulmonary inflammation and injury, HE stained pathological changes: prevention groups and treatment groups (FIG. 3), lower dose (30 mg/kg) better than higher dose. How it is done: as §1, §2
After the last intragastric administration, the mice are anaesthetized and killed to collect the lung tissue. Immerse the left lobule in 10% formalin, and embed it by paraffin after being fixed, then cut it into slices to observe the pathological changes by HE staining. As is shown in FIG. 3, structures of lobules of sham operation group are normal and the alveolar walls are complete without inflammation and fibrosis pathological changes. Obvious inflammation injury and masses of tissue begin to appear in lung of mice in model group, then the normal lung tissue disappears and alveolar is blocked. […] The groups with lower dose (30 mg/kg) of the 3 compounds show better effect than the groups with higher dose. The pulmonary inflammation disappears and alveolar structure is clear in groups with lower dose.
Inflammatory classification semi quantitative statistics analysis is made according to results of HE staining. Grade 0 represents normal tissue or minimal inflammation change. Grade 1 (+) represents mild to moderate inflammation change, and lung tissue without obvious damage. Grade 2 (++) represents moderate to severe inflammation injury, and alveolar septum is thickened to form masses of tissue, or lung tissue with damage caused by partial area inflammation. Grade 3 (+++) represents severe inflammation injury, and structure of restricted regions in lung tissue is severely damaged, thus resulting in obliteration. […] The groups with lower dose show better effect than the groups with higher dose. In general, the 3 compounds have better effect in decreasing the pulmonary inflammation than the positive drug pirfenidone.

Assay [5] shares this test system. Put plainly: Masson stained pathological evaluation and imaging analysis of collagen (Embodiment 4). Particulars: for collagen deposition (Masson staining, integrated optical density): 30, 60 mg/kg, prevention and treatment groups (FIG. 5, 6), lower dose better in prevention, higher dose better in treatment; for effect in decreasing the collagen deposition, comparison among compounds: in general, Masson staining. The assay is classed as in vivo, C57BL/6 mice. Here is the method: as §1, §2
Masson staining is a method aiming at specific staining of fibrillar collagen. After the last intragastric administration, the mice are anaesthetized and killed to collect the lung tissue. Immerse the left lobule in 10% formalin, and embed it by paraffin after being fixed, then is cut it into slices to observe the collagen deposition by Masson staining. Semi quantitative analysis is made by using Image-Pro Plus6.0. Integrated optical density (IOD) of collagen in each visual field is measured after Masson staining. 5 samples are studied in each group and 5 visual fields are picked out from each group. Statistics analysis is made by calculating mean value which is considered as relative amount of collagen in each group.

The test system is the same in assay [6]. The experiment in a line: Content determination of hydroxyproline in lung tissue (Embodiment 4). As to conditions: 30 mg/kg and 60 mg/kg, prevention groups and treatment groups (FIG. 7); lower dose slightly better. The assay is classed as in vivo, C57BL/6 mice. Here is the method: as §1, §2
Hydroxyproline mainly exists in collagen protein, but there is only a very small amounts in elastin proteins and it cannot found in other proteins. Therefore the content of collagen protein can be indicated by measuring the content of hydroxyproline, so as to evaluate the degree of pulmonary fibrosis. Method of test kit (which is purchased from Nanjing Jiancheng Biological Technology Co., Ltd.) according to specification is used in determination of hydroxyproline. Results can be seen in FIG. 7.

For assay [7], the system named is TGF-β1. The experiment in a line: ELISA content determination of TGF-β1 in mice lung tissue (Embodiment 4). The assay is classed as in vivo, C57BL/6 mice. As to conditions: for content of TGF-β1 in lung tissue (ELISA): 30 mg/kg and 60 mg/kg, prevention groups and treatment groups, versus model group (FIG. 8), lower dose more effective; for effect on content of TGF-β1, comparison among compounds: ELISA, lung tissue. How it is done:
as §1, §2
TGF-β1 is a universally recognized strong pro-fibrotic cytokine. It can stimulate the cells to synthesize and secrete extracellular matrix as well as exchange the activity of matrix-degrading enzyme component and directly increase the deposition of ECM. The progress of pulmonary fibrosis can be slowed down by decreasing the content of TGF-β1 in lung tissue. Elisa test kit (which is purchased from Shanghai Excell Biological Technology Co., Ltd.) according to specification is used in the determination of TGF-β1 in mice lung tissue. Results can be seen in FIG. 8.
On the technique in general: ELISA stands for enzyme-linked immunosorbent assay.

In assay [8] the test system is cough of guinea pig induced by citric acid. As to conditions: cited from earlier work.
Assay [9] deals with cough reflex pathway. Particulars: in vivo; cited from earlier work.
Where [10] appears, read: prevention groups, 30 mg/kg intragastric to the 14th day.
[11] abbreviates: prevention groups, 30 mg/kg intragastric to the 14th day, 10 animals.
[12] abbreviates: prevention groups, 60 mg/kg intragastric to the 14th day.
[13] abbreviates: prevention groups, 60 mg/kg intragastric to the 14th day, 10 animals.
[14] abbreviates: treatment groups, 30 mg/kg intragastric from the 8th to the 21th day.
The mark [15] stands for this setting: treatment groups, 30 mg/kg intragastric from the 8th to the 21th day, 18 animals.
Setting [16] is: treatment groups, 60 mg/kg intragastric from the 8th to the 21th day.
[17] abbreviates: treatment groups, 60 mg/kg intragastric from the 8th to the 21th day, 18 animals.

Consider `CC[C@@H]1[C@H]2CCCCN3CC[C@H]([C@@H]4[C@H]1OC(=O)[C@@H]4C)[C@@H]23` [Compound VIII, Sessilifoline B], for which, in assay [1], the “pulmonary inflammation, injury and fibrosis in HE and Masson stained pathological sections” value was “recover to nearly normal structure”. Further, the Survival rate came out at 90% in assay [2] (setting [10]), 80% in assay [2] (setting [12]), 83% in [2] (setting [14]) and 78% in [2] (setting [16]). Also, the “Mortality (number of dead animals)” value was 1 in [2] (setting [11]), 2 in [2] (setting [13]), 3 in [2] (setting [15]) and 4 in assay [2] (setting [17]). For the same compound, the “lung index (lung weight divided by mouse weight)” value in [3] was “significantly decrease the lung index”. Besides, in assay [4], the “lung tissue inflammation scores (HE stained, grade 0-3)” value (“lung tissue inflammation scores” below) is on record as “significantly decrease the pulmonary inflammation”. Also, in assay [4], the “pulmonary inflammation and injury, HE stained pathological changes” value is “significantly alleviate the pulmonary inflammation”. The “collagen deposition (Masson staining, integrated optical density)” value in assay [5] was “significantly decrease collagen deposition”. The “content of hydroxyproline in lung tissue” value in [6] was “effectively decrease the content of hydroxyproline”. In addition, the “content of TGF-β1 in lung tissue (ELISA)” value in assay [7] is on record as “effectively decrease the content of TGF-β1”. Besides, the “effect on content of TGF-β1, comparison among compounds” value in assay [7] was “slightly better than that of compound VII”.

Consider `CC[C@@H]1[C@H]2CCCCN3[C@H]2[C@@H](C[C@H]3[C@@H]2C[C@H](C)C(=O)O2)[C@H]2[C@@H]1OC(=O)[C@H]2C` [Compound VII, Neotuberostemonine], for which the “pulmonary inflammation, injury and fibrosis in HE and Masson stained pathological sections” value in assay [1] was “recover to nearly normal structure”. Besides, the Survival rate in assay [2] (setting [10]) came to 100%; in assay [2] (setting [12]), 80%; in assay [2] (setting [14]), 89%; in [2] (setting [16]) it was 78%. Besides, the “Mortality (number of dead animals)” value in assay [2] (setting [11]) is 0; in [2] (setting [13]) it was 2; in [2] (setting [15]), 2; in assay [2] (setting [17]), 4. Besides, in assay [2] (prevention groups), the “protective effect on model mice (mortality), comparison among compounds” value was “more effective than compound VIII”. For the same compound, in [3], the “lung index (lung weight divided by mouse weight)” value is “significantly decrease the lung index”. Further, the “lung tissue inflammation scores” value in assay [4] is “significantly decrease the pulmonary inflammation”. Further, the “pulmonary inflammation and injury, HE stained pathological changes” value in [4] is “significantly alleviate the pulmonary inflammation”. In addition, in assay [5], the “collagen deposition (Masson staining, integrated optical density)” value is given as “significantly decrease collagen deposition”. Besides, the “effect in decreasing the collagen deposition, comparison among compounds” value in [5] was “slightly better than that of compound VIII”. In addition, the “content of hydroxyproline in lung tissue” value in assay [6] was “effectively decrease the content of hydroxyproline”. In addition, in [7], the “content of TGF-β1 in lung tissue (ELISA)” value is on record as “effectively decrease the content of TGF-β1”. Further, the antitussive effect result in assay [8] was “very good antitussive effect”. In [9], the “antitussive activities, comparison among stemona tuberosa alkaloids” value was “similar”.

As for `CC[C@@H]1[C@H]2CCCCN3[C@H]2[C@H](C[C@H]3[C@@H]2C[C@H](C)C(=O)O2)[C@@H]2[C@H]1OC(=O)[C@H]2C` [Compound I, Tuberostemonine], in assay [1], the “pulmonary inflammation, injury and fibrosis in HE and Masson stained pathological sections” value is “recover to nearly normal structure”. Moreover, the Survival rate in assay [2] (setting [10]) is given as 100%; in assay [2] (setting [12]), 90%; in assay [2] (setting [14]), 89%; in [2] (setting [16]), 83%. Besides, the “Mortality (number of dead animals)” value turned out to be 0 in [2] (setting [11]), 1 in assay [2] (setting [13]), 2 in assay [2] (setting [15]) and 3 in assay [2] (setting [17]). Also, the “protective effect on model mice (mortality), comparison among compounds” value in assay [2] (prevention groups) is “more effective than compound VIII”. Also, the “lung index (lung weight divided by mouse weight)” value in [3] is on record as “significantly decrease the lung index”. For the same compound, the “lung tissue inflammation scores” value in [4] is given as “significantly decrease the pulmonary inflammation”. Moreover, the “pulmonary inflammation and injury, HE stained pathological changes” value in assay [4] was “significantly alleviate the pulmonary inflammation”. Besides, the “collagen deposition (Masson staining, integrated optical density)” value in assay [5] is “significantly decrease collagen deposition”. The “effect in decreasing the collagen deposition, comparison among compounds” value in assay [5] is “slightly better than that of compound VIII”. Also, in assay [6], the “content of hydroxyproline in lung tissue” value was “effectively decrease the content of hydroxyproline”. The “content of TGF-β1 in lung tissue (ELISA)” value in assay [7] is “effectively decrease the content of TGF-β1”. Besides, the “effect on content of TGF-β1, comparison among compounds” value in assay [7] was “slightly better than that of compound VII”. Also, in assay [9], the “antitussive activities, comparison among stemona tuberosa alkaloids” value is given as “weaker”.
